In article PMC10126473 (Frontiers in Pharmacology, 2023):

What was measured:
[1] = Metabolic stability in plasma; settings: for Plasma k: human, in vitro
Procedure: The incubation was carried out at 37°C for 15, 30, and 60 min. The reaction in plasma or liver microsomes was quenched by adding 200 μL of cold acetonitrile (containing 100 ng/mL tolbutamide as internal standard). After a 20 min centrifugation at 3000 rpm, 4°C, the supernatant was transferred to an analysis plate and analyzed by UPLC-MS/MS as described in Section 2.4.2.
The substrate disappearance half-life (t1/2) was estimated by regression analysis of the semi-logarithmic (ln Conc vs. time) plots.

[2] = Kinetic aqueous solubility (Pion µSOL assay); settings: pH 7.4
Procedure: Samples were incubated at room temperature for 6 h and vacuum-filtered using Tecan Te-Vac to remove any precipitates. The concentration of the compound in the filtrate was measured via UV absorbance (λ: 250–498 nm). […] All compounds were tested in duplicates. The kinetic solubility (µg/mL) of compounds was calculated using the µSOL Evolution software.

[3] = Metabolic stability and biotransformation in liver microsomes; settings: for Liver Vmax: in vitro
Procedure: (§1) The incubation was carried out at 37°C for 15, 30, and 60 min. The reaction in plasma or liver microsomes was quenched by adding 200 μL of cold acetonitrile (containing 100 ng/mL tolbutamide as internal standard).
(§2) The mc was the microsome concentration used in the incubation (0.5 mg/mL). The substrate disappearance half-life (t1/2) was estimated by regression analysis of the semi-logarithmic (ln Conc vs. time) plots. […] The Vmax, in vitro,app, PDN-total and Km for PDN depletion in liver microsomes were estimated by the Michaelis-Menten model using GraphPad Prism version 8.

[4] = as above; settings: for Liver Vmax: in vitro; remark: listed apart in the source
Procedure: as §1, §2

[5] = Metabolic stability in plasma; settings: for Plasma k: mouse, in vitro

Question: Which Plasma k ([1]; conversion to Nc) does the source give for `O=C(Nc1ccc([N+](=O)[O-])cc1Cl)c1cc(Cl)ccc1OC(=O)N1CCNCC1` [PDN] here?
Answer: 0.00026 s⁻¹

Question: What about the Plasma k ([1]; conversion to Others) of the same molecule?
Answer: 0.0022 s⁻¹

Question: What about the “kin vitro,app, PDN-total (total depletion of PDN)” value ([1]; human plasma, 37°C) of the same molecule?
Answer: 0.0025 ± 0.0013 min⁻¹

Question: And the “increase in solubility compared with Nc” value [2]?
Answer: 40 fold

Question: What about the solubility kinetic at 6 h [2] of the same molecule?
Answer: > 43.5 µg/mL

Question: What about the “Liver Vmax” value ([3]; conversion to Nc, hamster) of the same molecule?
Answer: 0.0085 mg/s/mg microsomes

Question: What about the “Gut Vmax” value ([3]; conversion to Nc, hamster, in vitro (in vitro liver parameters)) of the same molecule?
Answer: 0.0085 mg/s/mg microsomes

Question: What about the “Liver Vmax” value ([3]; conversion to Others, hamster) of the same molecule?
Answer: 0.1059 mg/s/mg microsomes

Question: And the “Vmax in vitro,app, PDN-total” value ([3]; hamster liver microsomes)?
Answer: 1.238 ± 0.133 nmol/min/mg

Question: And the Km ([3]; hamster, pH 7.4)?
Answer: 10.8 ± 3.04 µM

Question: What about the “Liver Vmax” value ([4]; conversion to Nc, mouse) of the same molecule?
Answer: 0.00095 mg/s/mg microsomes

Question: What about the “Gut Vmax” value ([4]; conversion to Nc, mouse, in vitro (in vitro liver parameters)) of the same molecule?
Answer: 0.00095 mg/s/mg microsomes

Question: What about the “Liver Vmax” value ([4]; conversion to Others, mouse) of the same molecule?
Answer: 0.1484 mg/s/mg microsomes

Question: What about the “Vmax in vitro,app, PDN-total” value ([4]; mouse liver microsomes) of the same molecule?
Answer: 1.327 ± 0.106 nmol/min/mg

Question: What about the Km ([4]; mouse, pH 7.4) of the same molecule?
Answer: 20.2 ± 3.31 µM

Question: What about the Plasma k ([5]; conversion to Nc) of the same molecule?
Answer: 0.0058 s⁻¹

Question: And the Plasma k ([5]; conversion to Others)?
Answer: 0.0062 s⁻¹

Question: What about the “kin vitro,app, PDN-total (total depletion of PDN)” value ([5]; mouse plasma, 37°C) of the same molecule?
Answer: 0.0120 ± 0.0015 min⁻¹
